Our source for the IC50 and inhibition values is patent US10519134B2, “Pyrazole compounds and methods of making and using same” (Lundbeck La Jolla Research Center, Inc., priority 2015, dated 2019).

The structures appear in SMILES notation.

One test addresses T1, FAAH (Mus musculus, UniProt O08914).
T1 construct: Proteomes (mouse brain membrane fraction or cell lysates); from tissue; host or cells: mouse brain membrane fraction (or cell lysates)
T1 sequence (O08914 1-579): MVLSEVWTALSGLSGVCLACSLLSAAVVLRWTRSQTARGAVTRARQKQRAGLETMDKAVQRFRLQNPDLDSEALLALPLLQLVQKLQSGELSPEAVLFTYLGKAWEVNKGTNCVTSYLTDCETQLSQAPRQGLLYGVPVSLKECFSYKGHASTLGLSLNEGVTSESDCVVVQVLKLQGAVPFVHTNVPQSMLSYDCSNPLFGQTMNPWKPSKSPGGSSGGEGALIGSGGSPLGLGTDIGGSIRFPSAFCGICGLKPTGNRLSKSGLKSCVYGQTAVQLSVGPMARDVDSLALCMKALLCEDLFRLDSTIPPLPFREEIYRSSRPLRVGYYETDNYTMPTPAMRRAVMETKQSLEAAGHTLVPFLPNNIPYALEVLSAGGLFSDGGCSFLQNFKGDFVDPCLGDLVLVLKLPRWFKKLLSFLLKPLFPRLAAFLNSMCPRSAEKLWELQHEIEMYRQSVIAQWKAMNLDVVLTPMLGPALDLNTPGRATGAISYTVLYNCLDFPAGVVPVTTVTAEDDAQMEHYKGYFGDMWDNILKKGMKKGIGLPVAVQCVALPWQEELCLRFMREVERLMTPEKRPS
The test is described as follows: In vitro competitive activity-based protein profiling (mouse), FAAH gel band. The settings on record: for IC50: mouse; for inhibition at 1 µM: read-out: FAAH % inh. 1 μM. Format: biochemical. On the procedure:
(§1) In Vitro Competitive Activity-Based Protein Profiling (Mouse).
(§2) Proteomes (mouse brain membrane fraction or cell lysates) (50 μL, 1.0 mg/mL total protein concentration) were preincubated with varying concentrations of inhibitors at 37° C. After 30 min, FP-Rh or HT-01 (1.0 μL, 50 μM in DMSO) was added and the mixture was incubated for another 30 min at 37° C. Reactions were quenched with SDS loading buffer (15 μL—4×) and run on SDS-PAGE. Following gel imaging, serine hydrolase activity was determined by measuring fluorescent intensity of gel bands corresponding to MAGL, ABHD6, and FAAH, using ImageJ 1.43u software.

Another test deals with T2, MAGL (Mus musculus, UniProt O35678).
T2 construct: Proteomes (mouse brain membrane fraction or cell lysates); from tissue; host or cells: mouse brain membrane fraction (or cell lysates)
T2 sequence (O35678 1-303): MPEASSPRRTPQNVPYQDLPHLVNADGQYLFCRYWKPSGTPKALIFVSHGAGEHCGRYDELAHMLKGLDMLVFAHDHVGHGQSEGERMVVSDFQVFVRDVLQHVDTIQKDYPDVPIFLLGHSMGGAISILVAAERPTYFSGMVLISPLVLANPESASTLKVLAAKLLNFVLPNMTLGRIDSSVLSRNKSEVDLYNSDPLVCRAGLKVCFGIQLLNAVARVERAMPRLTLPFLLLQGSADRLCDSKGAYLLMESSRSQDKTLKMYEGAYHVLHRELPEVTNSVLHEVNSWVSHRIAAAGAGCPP
The test is described as follows: In vitro competitive activity-based protein profiling (mouse), MAGL gel band. Format: biochemical. The settings on record: for IC50: mouse; for inhibition at 1 µM: read-out: MAGL % inh. 1 μM. On the procedure:
as §1, §2

Consider `CC(=O)Nc1ccn(C(=O)N2CCC3(CCCN3Cc3ccc(C(F)(F)F)cc3OC3CCS(=O)(=O)CC3)CC2)n1` [Example 87, N-(1-(1-(2-((1,1-dioxidotetrahydro-2H-thiopyran-4-yl)oxy)-4-(trifluoromethyl)benzyl)-1,8-diazaspiro[4.5]decane-8-carbonyl)-1H-pyrazol-3-yl)acetamide], for which, on FAAH, the IC50 was in the range of 1 to 10 µM and the inhibition at 1 µM was in the range of 25 to 50%. On MAGL, the IC50 fell in the range of 0.1 to 1 µM and the inhibition at 1 µM is ≥ 75%.

With `CC(=O)Nc1ccn(C(=O)N2CCC3(CCCN3Cc3ccc(C(F)(F)F)cc3OCC(=O)N3CCCC3)CC2)n1` [Example 89, N-(1-(1-(2-(2-oxo-2-(pyrrolidin-1-yl)ethoxy)-4-(trifluoromethyl)benzyl)-1,8-diazaspiro[4.5]decane-8-carbonyl)-1H-pyrazol-3-yl)acetamide], the inhibition at 1 µM at FAAH is 0 to 25%; on MAGL it was ≥ 75%.

Consider `O=C(CO)Nc1ccn(C(=O)N2CCN(Cc3ccc(Cl)cc3)CC2)n1` [Example 91, N-(1-(4-(4-chlorobenzyl)piperazine-1-carbonyl)-1H-pyrazol-3-yl)-2-hydroxyacetamide], for which the inhibition at 1 µM at FAAH was 0 to 25%; at MAGL, ≥ 75%.

As to `O=C(CO)Nc1ccn(C(=O)N2CCN(Cc3cccc(Oc4ccccc4)c3)CC2)n1` [Example 92, 2-hydroxy-N-(1-(4-(3-phenoxybenzyl)piperazine-1-carbonyl)-1H-pyrazol-3-yl)acetamide], the inhibition at 1 µM on FAAH and at MAGL was ≥ 75% each time.

In the case of `CC(=O)Nc1ccn(C(=O)N2CCC3(CCCN3Cc3ccc4c(c3)COC4)CC2)n1` [Example 97, N-(1-(1-((1,3-dihydroisobenzofuran-5-yl)methyl)-1,8-diazaspiro[4.5]decane-8-carbonyl)-1H-pyrazol-3-yl)acetamide], on FAAH, the 50% inhibitory concentration (IC50) was 1 to 10 µM and the inhibition at 1 µM lay within 0 to 25%. Moreover, on MAGL, the IC50 lay in the range of 0.1 to 1 µM and the inhibition at 1 µM is ≥ 75%.

Turning to `CC(=O)Nc1ccn(C(=O)N2CCC3(CCCN3Cc3ccc4c(c3)OCCO4)CC2)n1` [Example 98, N-(1-(1-((2,3-dihydrobenzo[b][1,4]dioxin-6-yl)methyl)-1,8-diazaspiro[4.5]decane-8-carbonyl)-1H-pyrazol-3-yl)acetamide], on FAAH, the IC50 lay within 1 to 10 µM and the inhibition at 1 µM fell in the range of 0 to 25%. At MAGL, the concentration for half-maximal inhibition (IC50) lay in the range of 0.1 to 1 µM and the inhibition at 1 µM is ≥ 75%.

In the case of `CC(=O)Nc1ccn(C(=O)N2CCC3(CCCN3Cc3ccc(N4CCOCC4)c(Cl)c3)CC2)n1` [Example 99, N-(1-(1-(3-chloro-4-morpholinobenzyl)-1,8-diazaspiro[4.5]decane-8-carbonyl)-1H-pyrazol-3-yl)acetamide], on FAAH, the half-maximal inhibitory concentration (IC50) fell in the range of 1 to 10 µM and the inhibition at 1 µM lay within 0 to 25%. In addition, at MAGL, the IC50 fell in the range of 0.1 to 1 µM and the inhibition at 1 µM is ≥ 75%.

As to `CC(=O)Nc1ccn(C(=O)N2CCC3(CCCN3Cc3ccc(N4CCCC4)c(Cl)c3)CC2)n1` [Example 100, N-(1-(1-(3-chloro-4-(pyrrolidin-1-yl)benzyl)-1,8-diazaspiro[4.5]decane-8-carbonyl)-1H-pyrazol-3-yl)acetamide], the half-inhibitory concentration (IC50) at FAAH was 1 to 10 µM; at MAGL it was ≤ 0.1 µM. The figures for the inhibition at 1 µM at FAAH and on MAGL were 0 to 25% and ≥ 75%, respectively.

Consider `CC(=O)Nc1ccn(C(=O)N2CCC3(CCCN3Cc3ccc(C(F)(F)F)c(C(=O)O)c3)CC2)n1` [Example 108, 5-((8-(3-acetamido-1H-pyrazole-1-carbonyl)-1,8-diazaspiro[4.5]decan-1-yl)methyl)-2-(trifluoromethyl)benzoic Acid], for which the inhibition at 1 µM at FAAH is 0 to 25%; on MAGL it was 50 to 75%.

As to `CC(=O)Nc1ccn(C(=O)N2CCC3(CCCN3Cc3ccc(C(=O)O)c(C(F)(F)F)c3)CC2)n1` [Example 110, 4-((8-(3-acetamido-1H-pyrazole-1-carbonyl)-1,8-diazaspiro[4.5]decan-1-yl)methyl)-2-(trifluoromethyl)benzoic Acid], the inhibition at 1 µM at FAAH is 0 to 25%; at MAGL it was ≥ 75%.

On to `CC(=O)Nc1ccn(C(=O)N2CCN(Cc3ccc(C#N)cc3-c3nnn[nH]3)CC2)n1` [Example 115, N-(1-(4-(4-cyano-2-(1H-tetrazol-5-yl)benzyl)piperazine-1-carbonyl)-1H-pyrazol-3-yl)acetamide], for which, at FAAH, the half-inhibitory concentration (IC50) was in the range of 1 to 10 µM and the inhibition at 1 µM was 0 to 25%. Besides, on MAGL, the IC50 lay within 0.1 to 1 µM and the inhibition at 1 µM was ≥ 75%.

`Cc1cc(CN2CCCC23CCN(C(=O)n2ccc(NC(=O)C(F)(F)F)n2)CC3)ccc1Cl` [Example 117, N-(1-(1-(4-chloro-3-methylbenzyl)-1,8-diazaspiro[4.5]decane-8-carbonyl)-1H-pyrazol-3-yl)-2,2,2-trifluoroacetamide]: the inhibition at 1 µM was 0 to 25% on FAAH and ≥ 75% on MAGL.

On to `CC(=O)N1CC2(CCN(c3ccccc3CN3CCN(C(=O)n4ccc(NS(C)(=O)=O)n4)CC3)C2)C1` [Example 122, N-(1-(4-(2-(2-acetyl-2,6-diazaspiro[3.4]octan-6-yl)benzyl)piperazine-1-carbonyl)-1H-pyrazol-3-yl) methanesulfonamide], for which the inhibition at 1 µM is 0 to 25% at FAAH and 50 to 75% at MAGL.

Regarding `CS(=O)(=O)Nc1ccn(C(=O)N2CCN(Cc3cc(C(F)(F)F)ccc3N3CCOCC3)CC2)n1` [Example 124, N-(1-(4-(2-morpholino-5-(trifluoromethyl)benzyl)piperazine-1-carbonyl)-1H-pyrazol-3-yl) methanesulfonamide], the inhibition at 1 µM at FAAH is 0 to 25%; at MAGL it was 50 to 75%.

As for `CS(=O)(=O)Nc1ccn(C(=O)N2CCC3(CCCN3Cc3ccc(C(F)(F)F)cc3N3CCOCC3)CC2)n1` [Example 126, N-(1-(1-(2-morpholino-4-(trifluoromethyl)benzyl)-1,8-diazaspiro[4.5]decane-8-carbonyl)-1H-pyrazol-3-yl)methanesulfonamide], the inhibition at 1 µM at FAAH is 0 to 25%; on MAGL it was ≥ 75%.

For `CS(=O)(=O)Nc1ccn(C(=O)N2CCN(Cc3ccc(Cl)cc3N3CCCCC3)CC2)n1` [Example 128, N-(1-(4-(4-chloro-2-(piperidin-1-yl)benzyl)piperazine-1-carbonyl)-1H-pyrazol-3-yl) methanesulfonamide], on FAAH, the half-inhibitory concentration (IC50) is 1 to 10 µM and the inhibition at 1 µM was 0 to 25%. In addition, at MAGL, the IC50 is ≤ 0.1 µM and the inhibition at 1 µM is ≥ 75%.

Consider `CS(=O)(=O)Nc1ccn(C(=O)N2CCN(Cc3ccc(C(F)(F)F)cc3N3CCCCC3)CC2)n1` [Example 129, N-(1-(4-(2-(piperidin-1-yl)-4-(trifluoromethyl)benzyl)piperazine-1-carbonyl)-1H-pyrazol-3-yl) methanesulfonamide], for which, on FAAH, the IC50 was in the range of 1 to 10 µM and the inhibition at 1 µM is 0 to 25%. Also, on MAGL, the half-maximal inhibitory concentration (IC50) was ≤ 0.1 µM and the inhibition at 1 µM is ≥ 75%.

For the compound `CS(=O)(=O)Nc1ccn(C(=O)N2CCC3(CCCN3Cc3ccc(Cl)cc3N3CCCC3)CC2)n1` [Example 131, N-(1-(1-(4-chloro-2-(pyrrolidin-1-yl)benzyl)-1,8-diazaspiro[4.5]decane-8-carbonyl)-1H-pyrazol-3-yl)methanesulfonamide], the inhibition at 1 µM lay in the range of 0 to 25% on FAAH and 50 to 75% on MAGL.

Regarding `CS(=O)(=O)Nc1ccn(C(=O)N2CCC3(CCCN3Cc3ccc(Cl)cc3N3CCCCC3)CC2)n1` [Example 132, N-(1-(1-(4-chloro-2-(piperidin-1-yl)benzyl)-1,8-diazaspiro[4.5]decane-8-carbonyl)-1H-pyrazol-3-yl)methanesulfonamide], the results for the inhibition at 1 µM on FAAH and at MAGL were 0 to 25% and 50 to 75%, respectively.

`CS(=O)(=O)Nc1ccn(C(=O)N2CCC3(CCCN3Cc3ccc(C(F)(F)F)cc3N3CCCCC3)CC2)n1` [Example 133, N-(1-(1-(2-(piperidin-1-yl)-4-(trifluoromethyl)benzyl)-1,8-diazaspiro[4.5]decane-8-carbonyl)-1H-pyrazol-3-yl)methanesulfonamide]: the IC50 was in the range of 1 to 10 µM at FAAH and 0.1 to 1 µM at MAGL. For the same compound, the figures for the inhibition at 1 µM on FAAH and on MAGL were 0 to 25% and ≥ 75%, respectively.
